Experimental data reported in US12465578B2, “Substituted alpha-ethyl phenylalkylamines” (Alexander Shulgin Research Institute, Inc., priority 2021, dated 2025).

Assay: In vitro metabolic stability: percent of compound remaining in human liver microsomes
Assay type: in vitro ADME
Conditions: for Percent of Compound Remaining Over Time / Dunnett's Multiple Comparison Test Mean Diff. (percent remaining, 2C-B minus compound): human liver microsomes; for rate of metabolism compared with 2C-B: human liver microsomes, 15, 30, 45 and 60 minutes of incubation; for rate of metabolism compared with 2C-B / Dunnett's Multiple Comparison Test Mean Diff. (percent remaining, 2C-B minus compound): 2C-B as control drug; for Dunnett's Multiple Comparison Test Mean Diff. (percent remaining, 2C-B minus compound): one-way ANOVA with Dunnett's post-test
Experimental: A high-throughput assay is used to determine metabolic stability of disclosed compounds and undeuterated analogs thereof in various matrices, including human liver microsomes, using LCMS analysis to quantify the percent compound remaining after incubation. Briefly, the disclosed compound is mixed with liver microsomes and activated. Following this incubation, acetonitrile is added to terminate the reaction. Then, the samples are centrifuged and the supernatant is dried. The residue is reconstituted and analyzed using liquid chromatography-mass spectrometry. Pharmacokinetic parameters are calculated using a noncompartmental model. The half-life (t1/2) is estimated from the slope of the initial linear range of the logarithmic curve of compound remaining (%) versus time, assuming first order kinetics.
In one such assay of metabolic stability, percent of compound remaining was determined in human liver microsomes after 15, 30, 45, and 60 minutes of incubation, for 2C-B, 2C-B-2-OCD3 (compound I-B-31), and 2C-B-5-OCD3 (compound I-A-31).

| SMILES | Percent of Compound Remaining Over Time (0 minutes of incubation) | rate of metabolism compared with 2C-B | Percent of Compound Remaining Over Time (15 minutes of incubation) | Percent of Compound Remaining Over Time (30 minutes of incubation) | Percent of Compound Remaining Over Time (45 minutes of incubation) | Percent of Compound Remaining Over Time (60 minutes of incubation) | Dunnett's Multiple Comparison Test Mean Diff. (percent remaining, 2C-B minus compound) |
| --- | --- | --- | --- | --- | --- | --- | --- |
| Cl.[2H]C([2H])([2H])Oc1cc(CCN)c(OC)cc1Br [Compound 2C-B-5-OCD3, 2-(4-bromo-2-methoxy-5-(methoxy-d3)phenyl)ethan-1-amine hydrochloride] | 100.0000% | metabolized more quickly than 2C-B | 96.2535% | 90.6402% | 90.7021% | 86.9011% | 14.31 |
| Cl.[2H]C([2H])([2H])Oc1cc(Br)c(OC)cc1CCN [Compound 2C-B-2-OCD3, 2-(4-bromo-5-methoxy-2-(methoxy-d3)phenyl)ethan-1-amine hydrochloride] | 100.0000% | metabolized more quickly than 2C-B | 95.8357% | 91.9169% | 98.7307% | 91.6972% | 11.57 |
| COc1cc(CCN)c(OC)cc1Br [Compound 2C-B, 2-(4-bromo-2,5-dimethoxyphenyl)ethanamine, reference compound] | 100.0000% | – | 104.3970% | 109.8740% | 105.1500% | 116.6050% | – |
